In patent US20240197588A1, “ANTIMICROBIAL COMPOSITION” (Conopco, Inc., d/b/a UNILEVER, priority 2021, published 2024):

Columns and labels:
[1] = Physical state of detackifying agent at room temperature; format: physicochemical
From the text: RT in Table 4 refers to room temperature.

[2] = Water solubility in oil (solvency of detackifying agent for water); conditions: neat detackifying agent
From the text: (§1) Detackifying agents desirable for use in the antimicrobial composition disclosed herein must meet the following criteria: the detackifying agent must be liquid, the detackifying agent must be soluble in at least a 75/25 or higher ratio of ethanol to water (EtOH/Water), which is to be reflective of solubility in the final composition resulting in a clear (i.e., transparent) final antimicrobial composition, and the detackifying agent must have no solvency for water.
Finally, the preferred detackifying agent must itself not have solvency for water such that during application and on drying as the ethanol and water evaporate, the water is also allowed to quickly evaporate leaving behind only the oil and any skin benefit actives/moisturizers if present.

[3] = Solubility of oil (detackifying agent) in 75/25 EtOH/Water; conditions: neat detackifying agent
From the text: as §1

Compound | Oil (liquid or solid at RT) [1] | Water solubility in detackifying agent [2] | Solubility in 75/25 EtOH/Water [3] [%]
CC(C)CCCCCCCCCCCCCCCO [Isostearyl alcohol] | Liquid |  | 
CCCCC(CC)COC(=O)CC(O)C(=O)OCC(CC)CCCC (stereo not shown) [Diethyl hexyl malate] | Liquid |  | 
CCCCC(CC)COC(=O)CCCCC(=O)OCC(CC)CCCC (stereo not shown) [Diethylhexyl adipate] | Liquid | No | <10
PPG15 Stearyl ether | Liquid | No | >30
Dicapryl maleate | Liquid | No | <10
CC(C)OC(=O)CCCCC(=O)OC(C)C [Disopropyl adipate] | Liquid | No | >30

Next, values leading:

Oil (liquid or solid at RT) [1] | Water solubility in detackifying agent [2] | Solubility in 75/25 EtOH/Water [3] [%] | Compound
Liquid | No | >30 | CCCCCCCCCCCCOC(=O)C(C)O (stereo not shown) [Lauryl lactate]
Liquid |  |  | CCCCC(CC)COC(=O)CCCCCCCCC(=O)OCC(CC)CCCC (stereo not shown) [Diethyl hexyl sebacate]
Liquid |  |  | CC(C)OC(=O)CCCCCCCCC(=O)OC(C)C [Diisopropyl sebacate]
